The nature of series [1]: Cytotoxicity against human GES-1 cells assessed as cell viability after 48 hrs by MTT assay. In kind it is cell-based, GES1. As to conditions: read-out: LC50.
In series [2] the target is T1, NPC1-like intracellular cholesterol transporter 1 (Homo sapiens) (UniProt Q9UHC9).
T1 sequence (whole entry): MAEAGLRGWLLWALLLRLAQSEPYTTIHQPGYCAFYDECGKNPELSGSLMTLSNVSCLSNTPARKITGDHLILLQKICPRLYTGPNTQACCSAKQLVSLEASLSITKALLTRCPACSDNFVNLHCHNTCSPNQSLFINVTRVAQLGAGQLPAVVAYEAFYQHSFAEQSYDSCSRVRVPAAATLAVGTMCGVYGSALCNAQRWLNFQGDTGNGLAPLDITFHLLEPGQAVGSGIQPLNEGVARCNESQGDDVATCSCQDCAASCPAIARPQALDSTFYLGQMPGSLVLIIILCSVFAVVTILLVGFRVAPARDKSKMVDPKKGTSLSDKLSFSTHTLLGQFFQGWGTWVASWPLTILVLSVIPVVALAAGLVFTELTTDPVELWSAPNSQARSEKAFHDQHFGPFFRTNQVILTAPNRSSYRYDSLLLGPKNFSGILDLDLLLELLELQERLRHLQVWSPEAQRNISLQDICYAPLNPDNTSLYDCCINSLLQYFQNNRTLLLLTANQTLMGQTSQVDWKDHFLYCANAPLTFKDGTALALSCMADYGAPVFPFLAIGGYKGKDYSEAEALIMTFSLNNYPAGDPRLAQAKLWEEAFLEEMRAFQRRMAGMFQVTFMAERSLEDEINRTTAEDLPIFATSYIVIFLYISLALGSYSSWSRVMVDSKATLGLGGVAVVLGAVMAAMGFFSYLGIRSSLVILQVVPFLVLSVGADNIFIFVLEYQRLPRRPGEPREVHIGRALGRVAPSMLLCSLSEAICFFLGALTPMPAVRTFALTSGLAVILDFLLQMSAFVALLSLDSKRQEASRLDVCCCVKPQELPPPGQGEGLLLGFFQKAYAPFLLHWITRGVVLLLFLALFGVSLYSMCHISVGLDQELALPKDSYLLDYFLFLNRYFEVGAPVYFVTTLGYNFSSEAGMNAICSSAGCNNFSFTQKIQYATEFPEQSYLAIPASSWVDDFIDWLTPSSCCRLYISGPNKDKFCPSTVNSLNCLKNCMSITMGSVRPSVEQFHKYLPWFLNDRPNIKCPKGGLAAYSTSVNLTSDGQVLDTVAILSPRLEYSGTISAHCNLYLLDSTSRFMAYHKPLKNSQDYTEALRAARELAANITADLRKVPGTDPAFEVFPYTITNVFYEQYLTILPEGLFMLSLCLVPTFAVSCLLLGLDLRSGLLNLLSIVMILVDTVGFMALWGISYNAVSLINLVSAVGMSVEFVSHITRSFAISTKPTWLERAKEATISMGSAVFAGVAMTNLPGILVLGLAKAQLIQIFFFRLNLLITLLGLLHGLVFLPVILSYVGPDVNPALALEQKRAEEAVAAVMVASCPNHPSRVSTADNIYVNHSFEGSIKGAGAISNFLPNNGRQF
As to the kind of experiment: Inhibition of niemann pick C1-like protein-1 in human Caco-2 cells assessed as cholesterol uptake at 100 uM after 24 hrs by HPLC analysis. In kind it is cell-based.

A short description of series [3]: Cytotoxicity against human HEK293 cells assessed as cell viability after 48 hrs by MTT assay. As to conditions: read-out: LC50. The class given is cell-based.
Series [4] in a line: Octanol-water partition coefficient, logP of the compound by HPLC analysis. In kind it is physicochemical.
Series [5] has as its system Hamster. As to the kind of experiment: Decrease in low density lipoprotein cholesterol level in serum of cholesterol fed hamster model at 50 mg/kg/day, po administered for 7 days measured on day 7 post last dose. The class given is functional, Cricetinae. Also noted: scale not given: the % may be the effect or the level left.
For series [6], the system named is Hamster. As to the kind of experiment: Increase in nitric oxide synthase level in serum of cholesterol fed hamster at 50 mg/kg/day, po administered for 7 days measured on day 7 post last dose. The class given is functional, organism-based. Conditions: Cricetinae.
In series [7] the test system is Hamster. As to the kind of experiment: Toxicity in cholesterol fed hamster model assessed as change in body weight at 50 mg/kg/day, po administered for 7 days measured during compound dosing. The class given is organism-based. As to conditions: cricetinae, in vivo, 168 h.
For series [8], the system named is Hamster. As to the kind of experiment: Decrease in free fatty acid level in serum of cholesterol fed hamster model at 50 mg/kg/day, po administered for 7 days measured on day 7 post last dose. In kind it is functional, Cricetinae. Also noted: scale not given: the % may be the effect or the level left.
Series [9] relates to Hamster. As to the kind of experiment: Decrease in triglyceride level in serum of cholesterol fed hamster model at 50 mg/kg/day, po administered for 7 days measured on day 7 post last dose. In kind it is functional, Cricetinae. Also noted: scale not given: the % may be the effect or the level left.
The test system of series [10] is Hamster. As to the kind of experiment: Effect on triglyceride level in cholesterol fed hamster liver at 50 mg/kg/day, po administered for 7 days measured on day 7 post last dose. In kind it is ADME, organism-based. As to conditions: cricetinae, in vivo, 168 h.
Series [11] has as its system Hamster. As to the kind of experiment: Increase in proportion of high density lipoprotein cholesterol to total cholesterol in serum of cholesterol fed hamster at 50 mg/kg/day, po administered for 7 days measured on day 7 post last dose. The class given is functional, Cricetinae.
For series [12], the system named is Hamster. As to the kind of experiment: Effect on total cholesterol level in cholesterol fed hamster liver at 50 mg/kg/day, po administered for 7 days measured on day 7 post last dose. The class given is ADME, organism-based. As to conditions: cricetinae, in vivo, 168 h.
The subject of series [13] is Hamster. As to the kind of experiment: Decrease in total cholesterol level in serum of cholesterol fed hamster model at 50 mg/kg/day, po administered for 7 days measured on day 7 post last dose. In kind it is functional, Cricetinae. Also noted: scale not given: the % may be the effect or the level left.
For series [14], the system named is Hamster. As to the kind of experiment: Increase in nitric oxide level in serum of cholesterol fed hamster at 50 mg/kg/day, po administered for 7 days measured on day 7 post last dose. The class given is functional, organism-based. Conditions: Cricetinae.
The test system of series [15] is Hamster. As to the kind of experiment: Toxicity in cholesterol fed hamster model assessed as decrease in body weight at 50 mg/kg/day, po administered for 7 days measured for 3 days during compound dosing. In kind it is organism-based. Conditions: cricetinae, in vivo, 72 h.

Each structure is given as a SMILES string. Activity calls are given as the source filed them. No cut-off for these calls is given here. Where only a bound is given, the exact number is not on record here.

`CCc1ccc(S(=O)(=O)NCCC[C@H]2C(=O)N(c3ccc(C)cc3)[C@@H]2c2ccc(NS(=O)(=O)c3ccc(C)cc3)cc2)cc1`: the CC50 at 48 h in series [1] is 92.9 µM; in [3], 42.9 µM. Further, the inhibition result in [2] is “Active”. This molecule also gave a logP in [4] of 3.4.

Turning to `CCc1ccc(S(=O)(=O)NCCC[C@H]2C(=O)N(c3ccc(C)cc3)[C@@H]2c2ccc([N+](=O)[O-])cc2)cc1`, the CC50 at 48 h in series [1] and in series [3] was over 100 µM in each case. In addition, the inhibition entry in series [2] was “Active”. In series [4], this molecule displayed a logP of at least 4.4.

Take `O=C1C(c2ccc(O)cc2)=C(c2ccc(F)cc2)C(=O)N1CCCCNS(=O)(=O)c1ccc(OC(F)(F)F)cc1`: the inhibition result in [2] is “Active”.

As to `Cc1ccc(N2C(=O)[C@H](CCCNS(=O)(=O)c3cccs3)[C@H]2c2ccc([N+](=O)[O-])cc2)cc1`, the inhibition result in [2] is “Active”.

`CCc1ccc(S(=O)(=O)NCCC[C@H]2C(=O)N(c3ccc(C)cc3)[C@@H]2c2ccc(NS(C)(=O)=O)cc2)cc1`: the CC50 at 48 h in series [1] and in series [3] was over 100 µM throughout. In series [2], the inhibition entry was “Active”. The molecule also showed a logP in series [4] of 3.4.

Take `Cc1ccc(N2C(=O)[C@H](CCCNS(=O)(=O)c3ccc(OC(F)(F)F)cc3)[C@H]2c2ccc([N+](=O)[O-])cc2)cc1`: the CC50 at 48 h in series [1] is 56.8 µM; in [3], over 100 µM. Further, the inhibition in series [2] is 47.9%. The molecule also displayed a logP in series [4] of at least 4.4.

In the case of `Cc1ccc(N2C(=O)[C@H](CCCNS(=O)(=O)c3ccc(OC(F)(F)F)cc3)[C@H]2c2ccc(NS(C)(=O)=O)cc2)cc1`, the Activity is on record as 17.8% in the series on Hamster [5]; “Non-toxic” in the series on Hamster [7]; 21.4% in the series with Hamster [8]; 25.3% in the series with Hamster [9]; “Non-toxic” with Hamster [10]; 42.9% with Hamster [11]. Further, the Activity result in the series with Hamster [12] was “Non-toxic”; with Hamster [13], 25.7%. For the same molecule, the result in the series on Hamster [6] and in the series with Hamster [14] was Active. Also, the CC50 at 48 h in series [1] and in [3] was over 100 µM in each case. Further, the inhibition in series [2] worked out at 41.4%. Besides, in series [4], the logP is 3.4.

For `O=C1[C@H](CC[C@H](O)c2ccc(F)cc2)[C@@H](c2ccc(O)cc2)N1c1ccc(F)cc1` [EZETIMIBE], the Activity result in the series on Hamster [15] was “Toxic”; with Hamster [5], 24.8%; with Hamster [8], 29.5%; in the series with Hamster [9] it was 36%; in the series with Hamster [11], 56%; in the series on Hamster [13], 30.2%. The CC50 at 48 h in series [1] came to 61.3 µM; in series [3], 54.6 µM. Moreover, the log partition coefficient (logP) in [4] is 3.4.

As to `Cc1ccc(N2C(=O)[C@H](CCCNS(=O)(=O)c3ccc(OC(F)(F)F)cc3)[C@H]2c2ccc(NS(=O)(=O)c3ccc(C)cc3)cc2)cc1`, the CC50 at 48 h in series [1] and in series [3] was over 100 µM each time. In addition, the inhibition result in series [2] was “Active”. In addition, in series [4], the log partition coefficient (logP) worked out at 3.4.

For `O=C1C(c2ccc(O)cc2)=C(c2ccc(F)cc2)C(=O)N1CCCCNS(=O)(=O)c1ccc(C(F)(F)F)cc1`, in series [2], the inhibition result is “Active”.

Values taken from ChEMBL document CHEMBL3758158, “Discovery of 2-azetidinone and 1H-pyrrole-2,5-dione derivatives containing sulfonamide group at the side chain as potential cholesterol absorption inhibitors” (Bioorg Med Chem Lett, 2016).
